The source of these data is ChEMBL document CHEMBL5335855, “Structure-Activity Relationships of Natural C-9-Methyl-Substituted 10-Membered Lactones and Their Semisynthetic Derivatives” (J Nat Prod, 2024).

≈ marks a conversion by molar mass, not a printed value. Where “and” joins values, the source holds several entries; their conditions need not be identical. Equal entries are not always repeated. Some results are limits rather than exact numbers.

Data set [1] can be described thus: Phytotoxicity in Sonchus arvensis assessed as diameter of lesions at 2 mg/ml incubated for 120 hrs by leaf puncture assay. The format is toxicity.
Data set [2] concerns Bacillus subtilis. The data set is described as follows: Antibacterial activity against Bacillus subtilis NCTC […] assessed as zone of inhibition at 100 ug per disc incubated for 24 hrs by agar diffusion assay. In kind it is functional. The conditions noted are these: read-out: DIZ.
A short description of data set [3]: Cytotoxicity against Spodoptera frugiperda Sf9 cells incubated for 24 hrs by trypan blue staining based assay. The format is toxicity, cell-based. The conditions noted are these: read-out: LC50.
The nature of data set [4]: Toxicity in Galleria mellonella larvae upto 420 mg/kg treated for 14 days in dark. The conditions noted are these: in vivo, 336 h, time 14 day. In kind it is organism-based.
Data set [5] has as its system Aphididae. In words: Aphicidal activity against insects at 1 mg/ml measured after 24 hrs. The format is functional.
Data set [6] deals with Paramecium caudatum. The data set is described as follows: Toxicity in Paramecium caudatum. In kind it is organism-based. The conditions noted are these: in vivo.
Data set [7] in a line: Toxicity in Galleria mellonella larvae treated for 14 days in dark. The conditions noted are these: 336 h, time 14 day.
For data set [8], the system named is Schizaphis graminum. In words: Aphicidal activity against Schizaphis graminum at 1 mg/ml measured after 24 hrs. The format is functional.
The subject of data set [9] is MCF7. In words: Cytotoxicity against human MCF7 cells measured after 24 hrs by MTT assay. The format is functional, cell-based. The note with it: MCF7, 24 h. (In general: Tetrazolium assays rely on reduction of a dye to a coloured formazan, in cell work by metabolically active cells.)
A short description of data set [10]: Cytotoxicity against mouse LP07 cells measured after 24 hrs by MTT assay. The note with it: LP07, 24 h. In kind it is functional, cell-based.
A short description of data set [11]: Cytotoxicity against mouse LM3 cells measured after 24 hrs by MTT assay. In kind it is functional, cell-based. The conditions noted are these: LM3, 24 h.

For `C[C@@H]1CCC(=O)CCCCC(=O)O1`, the Activity in [1] is listed as 0 mm; in [4] it was “Non-Toxic”. The zone of inhibition at 100 µg/disc in data set [2] was 0 mm. For the same molecule, the CC50 at 24 h in [3] was > 100 µg/mL and > 540 µM.

As usually defined, the mortality is the share of the test organisms that died. The low end stands for more survivors, the high end for fewer survivors. As to `C[C@@H]1CC[C@@H](O)[C@H](O)CCCC(=O)O1`, the Activity in data set [1] is given as 0 mm; in [4], “Non-Toxic”. Further, the zone of inhibition at 100 µg/disc in data set [2] was found to be 0 mm. Further, the mortality at 1000 µg/mL in data set [5] worked out at 33%.

Turning to `C[C@H]1OC(=O)CCC(=O)C[C@H](O)[C@H]2O[C@H]21`, the Activity in data set [1] is given as 1.1 mm; in data set [4], “Non-Toxic”. Further, the zone of inhibition at 100 µg/disc in data set [2] is 0 mm. Besides, the mortality at 1000 µg/mL in data set [5] stood at 13%.

For `CC(=O)O[C@@H]1CC[C@@H](C)OC(=O)/C=C\[C@@H]2O[C@H]21`, the Activity is 5.2 mm in [1] and “Non-Toxic” in data set [4]. For the same molecule, in [2], the zone of inhibition at 100 µg/disc stood at 0 mm. Also, in data set [3], the CC50 at 24 h was > 100 µg/mL and > 420 µM. The molecule further came in with a mortality at 1000 µg/mL in [5] of 23%.

Consider `C[C@@H]1CC[C@@H](O)CCCCC(=O)O1`, for which the Activity in data set [1] is reported as 0 mm; in data set [4], “Non-Toxic”. The zone of inhibition at 100 µg/disc in data set [2] stood at 0 mm. For the same molecule, the CC50 at 24 h in data set [3] is > 100 µg/mL and > 540 µM. The molecule further gave a mortality at 1000 µg/mL in data set [5] of 0%.

Turning to `C[C@@H]1CC[C@@H](O)[C@@H]2O[C@H]2/C=C\C(=O)O1`, the figures for the Activity in data set [1] and in [4] were 5.5 mm and “Non-Toxic”, respectively. Also, in [2], the zone of inhibition at 100 µg/disc came out at 0 mm. In data set [3], the CC50 at 24 h is > 100 µg/mL and > 500 µM. The molecule further came in with a mortality at 1000 µg/mL in data set [5] of 8%.

Consider `C[C@H]1OC(=O)CC[C@H](O)/C=C/[C@H]2O[C@@H]12`, for which the results for the Activity in data set [1] and in data set [4] were 0 mm and “Non-Toxic”, respectively. For the same molecule, the zone of inhibition at 100 µg/disc in [2] was 0 mm. Further, the mortality at 1000 µg/mL in [5] amounted to 0%.

In the case of `C[C@@H]1C[C@H](O)/C=C/C(=O)/C=C\C(=O)O1`, the values for the Activity in data set [1], in data set [4] and in data set [6] were 4.3 mm, “Non-Toxic” and “Non-Toxic”, respectively. Also, the zone of inhibition at 100 µg/disc in [2] is 45 mm. Also, in data set [3], the CC50 at 24 h is < 1 µg/mL and < 5 µM. In data set [5], this molecule yielded a mortality at 1000 µg/mL of 10%.

For the molecule `CC(=O)O[C@H]1/C=C/C=C\C(=O)O[C@H](C)CC1`, the Activity in data set [1] is 0 mm. Besides, the zone of inhibition at 100 µg/disc in data set [2] was 0 mm. In addition, the mortality at 1000 µg/mL in [5] was 55%. For the same molecule, the LC50 in data set [7] turned out to be 160 mg/kg.

On to `CCC[C@H]1OC(=O)CCC/C=C/[C@H](O)[C@@H]1O` [HERBARUMIN I], for which the Activity in [1] was 4.8 mm; in data set [4], “Non-Toxic”. Further, in data set [2], the zone of inhibition at 100 µg/disc worked out at 0 mm. This molecule returned a mortality at 1000 µg/mL in data set [8] of 54%.

By IC50 is commonly meant the midpoint of a concentration-inhibition curve. Low readings indicate inhibition by little substance, high ones a need for much substance. `C[C@@H]1C[C@H](O)/C=C/[C@@H](O)/C=C\C(=O)O1` [MODIOLIDE A]: the IC50 in [9] is 61 µg/mL (≈ 308 µM); in data set [10], more than 125 µg/mL; in [11] it was 292 µg/mL (≈ 1470 µM).

In the case of `C[C@@H]1CC[C@@H](O)/C=C/C=C\C(=O)O1` [STAGONOLIDE E], the Activity in data set [1] is 1.7 mm; in data set [4], “Non-Toxic”. Also, the zone of inhibition at 100 µg/disc in data set [2] worked out at 0 mm. The molecule also yielded a mortality at 1000 µg/mL in data set [5] of 67%.

`CCC[C@H]1OC(=O)CCC/C=C/C(=O)[C@@H]1O` [STAGONOLIDE]: the Activity in [1] was found to be 6.4 mm. Also, the zone of inhibition at 100 µg/disc in [2] is 38 mm. For the same molecule, in data set [3], the CC50 at 24 h was 3 µg/mL and 13 µM. Also, the LC50 in [7] was 300 mg/kg. In [8], this molecule came in with a mortality at 1000 µg/mL of 15%.
